Consider one molecule from patent publication US9795561B2, “Combination of umeclidinium, fluticasone propionate and salmeterol xinafoate for use in the treatment of inflammatory or respiratory tract diseases” (Glaxo Group Limited, priority 2012, dated 2017).

The subject of one data set is muscarinic receptor. The data set can be described thus: Muscarinic receptor antagonism, studies in animal models and in humans.
For data set [1], the system named is healthy volunteers and COPD patients. The data set can be described thus: Clinical pharmacology studies, single inhaled doses, plethysmography (sGaw, Raw) and spirometry (FEV1). Type of data set: in vivo, human. As for the experimental part:
Several clinical pharmacology studies have been conducted using umeclidinium bromide in both healthy volunteers and COPD patients to investigate the safety, tolerability, pharmacokinetics and pharmacodynamics of this compound. The bronchodilatory effects and duration of action of single inhaled doses of this compound as measured by plethysmography (sGaw, Raw) and spirometry (FEV1) were assessed in some of the above noted studies.

For data set [2], the system named is subjects with COPD. Put plainly: 28-day once-daily dry powder inhaler study in subjects with COPD. The format is in vivo, human. The note with it: 125, 250 and 500 mcg once-daily, 28 days. From the text: A further study evaluated the efficacy and safety of three doses of umeclidinium (125 mcg, 250 mcg and 500 mcg as umeclidinium bromide) administered once-daily via a dry powder inhaler over a 28 day period in subjects with COPD.

Data set [3] has as its system subjects with COPD. Put plainly: 14-day once-daily dose-ranging study in subjects with COPD. The format is in vivo, human. The source says:
In addition, this study confirmed that umeclidinium bromide has a once-daily profile.

A further data set deals with pre-clinical models. The data set can be described thus: Duration of action in vivo when administered directly to the lungs in pre-clinical models.
The next data set has as its target human M3 receptor (Homo sapiens, UniProt P20309). Put plainly: Reversibility at the human M3 receptor in vitro. The format is binding.

human M3 receptor, sequence (P20309 whole entry): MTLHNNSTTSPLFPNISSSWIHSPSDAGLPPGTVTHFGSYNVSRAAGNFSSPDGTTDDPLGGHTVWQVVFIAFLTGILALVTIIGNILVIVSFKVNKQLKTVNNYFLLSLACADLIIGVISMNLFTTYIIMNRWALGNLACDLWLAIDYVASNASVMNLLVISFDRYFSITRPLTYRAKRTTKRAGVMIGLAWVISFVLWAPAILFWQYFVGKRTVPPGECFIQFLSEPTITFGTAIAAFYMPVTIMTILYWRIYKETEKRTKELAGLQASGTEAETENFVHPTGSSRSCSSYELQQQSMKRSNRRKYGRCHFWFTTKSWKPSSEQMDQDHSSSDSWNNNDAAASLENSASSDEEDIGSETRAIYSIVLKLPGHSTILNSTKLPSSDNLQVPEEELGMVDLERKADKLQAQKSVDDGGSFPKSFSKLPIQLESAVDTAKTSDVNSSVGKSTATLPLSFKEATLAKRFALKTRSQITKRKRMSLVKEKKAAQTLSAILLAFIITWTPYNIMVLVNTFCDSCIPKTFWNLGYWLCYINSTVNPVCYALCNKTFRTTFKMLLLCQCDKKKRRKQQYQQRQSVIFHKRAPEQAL

Regarding `OC(c1ccccc1)(c1ccccc1)C12CC[N+](CCOCc3ccccc3)(CC1)CC2.[Br-]` [umeclidinium bromide, 4-[hydroxy(diphenyl)methyl]-1-{2-[(phenylmethyl)oxy]ethyl}-1-azoniabicyclo[2.2.2]octane bromide], in the data set with muscarinic receptor, the “muscarinic receptor antagonist profile” value is recorded as “long acting high-affinity pan-active muscarinic receptor antagonist”. In addition, in data set [1], the bronchodilatory effect result was “clinically relevant bronchodilation” and the duration of action came out at 24 h. Moreover, in the data set on subjects with COPD [2], the bronchodilation entry is “maintaining significant bronchodilation over twenty four hours” and the safety entry is listed as “appears to be safe”. Besides, the “improvement in trough FEV1 versus open label tiotropium (18 mcg once-daily)” value with subjects with COPD [3] (all once-daily doses (62.5-1000 mcg), 14 days) is listed as “numerically greater improvement”. In addition, the “pulmonary function compared to placebo” value in the data set on subjects with COPD [3] (five once-daily doses (62.5, 125, 250, 500, 1000 mcg) over 14 days) is reported as “statistically significant improvements”. In the data set on pre-clinical models, the “duration of action in vivo” value was “long duration of action”. In addition, at human M3 receptor, the “reversibility at the human M3 receptor” value was “slow reversibility”.
